Source: ChEMBL document CHEMBL2073853, “Cholesterol interaction with the daunorubicin binding site of P-glycoprotein” (Biochem Biophys Res Commun, 2000)

Biological target: ATP-dependent translocase ABCB1 (Homo sapiens, UniProt P08183)
Assay: TP_TRANSPORTER: increase in Daunorubicn intracellular accumulation (Daunorubicin: ? uM) in NIH-G185 cells
Assay type: functional, cell-based

Chain of ATP-dependent translocase ABCB1 (P08183 whole entry): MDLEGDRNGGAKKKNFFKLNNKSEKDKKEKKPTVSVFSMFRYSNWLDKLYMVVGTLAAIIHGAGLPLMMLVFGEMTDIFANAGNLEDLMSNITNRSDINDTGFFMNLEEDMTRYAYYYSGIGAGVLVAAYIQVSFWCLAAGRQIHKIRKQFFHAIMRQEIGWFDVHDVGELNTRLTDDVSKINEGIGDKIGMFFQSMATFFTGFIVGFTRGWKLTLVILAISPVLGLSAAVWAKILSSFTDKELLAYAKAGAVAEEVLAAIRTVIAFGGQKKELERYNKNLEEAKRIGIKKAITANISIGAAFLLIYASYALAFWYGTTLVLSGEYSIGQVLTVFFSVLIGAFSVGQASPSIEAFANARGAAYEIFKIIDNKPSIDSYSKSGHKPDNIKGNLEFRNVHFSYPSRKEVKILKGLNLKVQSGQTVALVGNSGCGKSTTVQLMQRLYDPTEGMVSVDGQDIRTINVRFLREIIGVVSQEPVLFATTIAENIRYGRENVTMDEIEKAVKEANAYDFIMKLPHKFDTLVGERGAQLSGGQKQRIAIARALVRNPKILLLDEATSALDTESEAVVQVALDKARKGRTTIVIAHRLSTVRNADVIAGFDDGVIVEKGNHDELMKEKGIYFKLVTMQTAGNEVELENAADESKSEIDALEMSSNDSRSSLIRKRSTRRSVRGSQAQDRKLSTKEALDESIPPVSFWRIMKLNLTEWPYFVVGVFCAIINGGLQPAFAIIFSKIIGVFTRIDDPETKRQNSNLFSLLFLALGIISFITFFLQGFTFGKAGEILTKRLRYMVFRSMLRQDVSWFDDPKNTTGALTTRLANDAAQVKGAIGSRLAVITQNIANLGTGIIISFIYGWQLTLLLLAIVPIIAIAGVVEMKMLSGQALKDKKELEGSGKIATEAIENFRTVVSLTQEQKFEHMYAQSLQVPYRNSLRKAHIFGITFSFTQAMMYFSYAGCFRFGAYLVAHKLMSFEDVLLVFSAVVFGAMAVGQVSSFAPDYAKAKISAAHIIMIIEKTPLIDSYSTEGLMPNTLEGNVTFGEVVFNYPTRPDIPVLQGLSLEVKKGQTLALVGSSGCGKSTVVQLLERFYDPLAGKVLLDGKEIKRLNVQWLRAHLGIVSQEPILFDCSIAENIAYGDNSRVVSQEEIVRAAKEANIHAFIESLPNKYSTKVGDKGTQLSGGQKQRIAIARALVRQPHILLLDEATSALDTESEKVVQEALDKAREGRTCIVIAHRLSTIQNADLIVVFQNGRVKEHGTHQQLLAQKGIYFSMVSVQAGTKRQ

In the case of CC(C)CCC[C@@H](C)[C@H]1CC[C@H]2[C@@H]3CC=C4C[C@@H](O)CC[C@]4(C)[C@H]3CC[C@]12C [CHOLESTEROL], the IC50 is reported as 8.2 µM.
